The subject of one data set is RIN5fm cells. Description: MTT reduction assay: effects of peptides on formation of cell-damaging IAPP assemblies (incl. IC50 titrations). The format is cell-based, rat. The settings on record: for IC50: 24 h; for effect on IAPP cytotoxicity (in words): MTT reduction in RIN5fm cells, solutions of the ThT assay. The protocol:
Briefly, cells were cultivated and platted in 96-well plates as described in ref. [68]. Aliquots of solutions used for the ThT binding assays (see “ThT binding assays”) were diluted with cell medium at the indicated incubation time points (24 h or 7 days) and added to the cells at the indicated final concentrations. Following incubation with the cells for ~20 h (37 °C, humidified atmosphere, 5% CO2), cell damage was assessed by measuring cellular MTT reduction as described[32],[68]. IC50 values were determined as described[20],[21],[32].
Background: Tetrazolium assays rely on reduction of a dye to a coloured formazan, in cell work by metabolically active cells.

The target in data set [1] is T1, N-terminal fluorescein-labeled IAPP (Homo sapiens, UniProt P10997).
T1 construct: made in house; host or cells: chemical synthesis (Fmoc-SPPS)
T1 sequence (P10997 34-70 limits assumed): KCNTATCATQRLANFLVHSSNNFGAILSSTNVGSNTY
The experiment in a line: Fluorescence spectroscopic titration of Fluos-IAPP with ACMs. The format is binding. The procedure:
(§1) Fluorescence spectroscopic studies were performed with a Jasco FP-6500 fluorescence spectrophotometer (software: Spectra Manager V1.54.03 (Build 1)) using previously established protocols[12],[20],[25],[26],[32]. Briefly, excitation was at 492 nm and spectra were measured between 500 and 600 nm. All titrations were performed in freshly made solutions of synthetic N-terminal fluorescently-labeled peptide (5 nM) and various amounts of unlabeled peptide in 10 mM sodium phosphate buffer, pH 7.4 (1% HFIP) within 2–5 min following solution preparation as described in refs. [20], [25], [26]. Under these experimental conditions, freshly made solutions of Fluos-IAPP and FITC-Aβ42 (5 nM) consist mostly of monomers[25],[26],[32] and the same was found for Fluos-ACMs (5 nM) (e.g., Supplementary Fig. 5e). Apparent binding affinities (app. KDs) were estimated by using 1/1 binding models (software: OriginPro 2016G, Origin 2021, and GraFit (v.5)) as described in refs. [20], [25], [26], [32]. However, due to the high self-assembly propensities of involved peptides, more complex models might also apply. Determined app. KDs are means (±SD) from three binding curves derived from three independent titration assays.

Data set [2] addresses T2, N-terminal FITC-labeled Aβ42 (Homo sapiens, UniProt P05067).
T2 construct: the 40(42)-residue peptide Aβ40(42); purchased Bachem
The experiment in a line: Fluorescence spectroscopic titration of FITC-Aβ42 with ACMs. The format is binding. The procedure:
as §1

In another data set the test system is PC12 cells. The experiment in a line: MTT reduction assay: cytotoxicity of preformed (TAMRA-)Aβ42 oligomers with or without Nle3-VF. It is filed as cell-based. The settings on record: TAMRA-oAb42 (2 h); mean, n = 4. The protocol: Preformed (TAMRA-)oAβ42 and their mixtures with Nle3-VF were then incubated for an additional 2 h (37 °C, shaking 500 rpm; conditions as for the ThT binding assay). Incubation with the cells and the MTT reduction assay were performed as above. Statistical analysis (Supplementary Fig. 27d) was performed by one-way ANOVA and Bonferroni (software: OriginPro 2021).

The mark [3] stands for this setting: SF 6, Mean values of the 3 curves, read-out: App. Kd.
Setting [4] is: Table 2, mean values of the 3 curves, read-out: App. Kd.
The mark [5] stands for this setting: app. KD (±SD) of ACM/Aβ42 interactions, titration of FITC-Aβ42 (5 nM; pH 7.4) with ACMs, means (±SD) from three binding curves.
[6] abbreviates: titration of Fluos-IAPP (5 nM; pH 7.4, 10 mM sodium phosphate, 1% HFIP) with ACMs, 1/1 binding model, means (±SD) from three binding curves.

Like-named read-outs stand apart in the source and are kept apart here. Square brackets hold non-standard residues; d marks the D form. Peptide text beside a SMILES is read from it. NMeF = CN[C@@H](Cc1ccccc1)C(=O)O; NMeL = CN[C@@H](CC(C)C)C(=O)O; NMeV = CN[C@H](C(=O)O)C(C)C; Nle = CCCC[C@H](N)C(=O)O

T2 sequence (P05067 672-713 limits assumed): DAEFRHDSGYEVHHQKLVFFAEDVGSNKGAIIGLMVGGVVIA

Take `CCCC[C@H](NC(=O)[C@H](CC(=O)O)NC(=O)[C@H](CCC(=O)O)NC(=O)[C@H](C)NC(=O)[C@H](Cc1ccccc1)NC(=O)[C@H](Cc1ccccc1)N(C)C(=O)[C@@H](NC(=O)[C@H](CC(C)C)N(C)C(=O)[C@H](CCCCN)NC(=O)[C@@H](N)CCC(N)=O)C(C)C)C(=O)N[C@@H](CCCC)C(=O)N[C@@H](CCCC)C(=O)N[C@@H](CC(N)=O)C(=O)N[C@@H](CCCCN)C(=O)NCC(=O)N[C@@H](C)C(=O)N[C@H](C(=O)N[C@H](C(=O)NCC(=O)N[C@@H](CC(C)C)C(=O)N[C@@H](CCCC)C(=O)N[C@H](C(=O)NCC(=O)NCC(=O)N[C@H](C(=O)N[C@H](C(=O)O)C(C)C)C(C)C)C(C)C)[C@@H](C)CC)[C@@H](C)CC` [Nle3-LF] (H-QK[NMeL]V[NMeF]FAED[Nle][Nle][Nle]NKGAIIGL[Nle]VGGVV-OH): the IC50 (commonly the concentration that gives 50% inhibition) in the data set with RIN5fm cells came out at 82.1 nM. Also, the “effect on IAPP cytotoxicity (in words)” value in the data set with RIN5fm cells is “fully suppressed”. Moreover, the Kd in data set [1] was found to be 55.4 nM; in data set [1] (setting [3]), 55.4 nM; in data set [2] (setting [4]), 11.1 nM; in data set [2] (setting [5]) it was 11.1 nM.
On to `CCCC[C@H](NC(=O)[C@H](CC(C)C)NC(=O)CNC(=O)[C@@H](NC(=O)[C@@H](NC(=O)[C@H](C)NC(=O)CNC(=O)[C@H](CCCCN)NC(=O)[C@H](CC(N)=O)NC(=O)[C@H](Cc1ccccc1)NC(=O)[C@H](Cc1ccccc1)NC(=O)[C@H](Cc1ccccc1)NC(=O)[C@H](CC(=O)O)NC(=O)[C@H](CCC(=O)O)NC(=O)[C@H](C)NC(=O)[C@H](Cc1ccccc1)NC(=O)[C@H](Cc1ccccc1)N(C)C(=O)[C@@H](NC(=O)[C@H](CC(C)C)N(C)C(=O)[C@H](CCCCN)NC(=O)[C@@H](N)CCC(N)=O)C(C)C)[C@@H](C)CC)[C@@H](C)CC)C(=O)N[C@H](C(=O)NCC(=O)NCC(=O)N[C@H](C(=O)N[C@H](C(=O)O)C(C)C)C(C)C)C(C)C` [F3-LF] (H-QK[NMeL]V[NMeF]FAEDFFFNKGAIIGL[Nle]VGGVV-OH), for which the IC50 in the data set on RIN5fm cells is 41.7 nM. In addition, the Kd in data set [1] (setting [3]) came out at 37.6 nM; in data set [1] (setting [6]), 37.6 nM; in data set [2] (setting [4]), 431 nM; in data set [2] (setting [5]), 431 nM.
With TAMRA-oAb42, the “MTT reduction (% control)” value in the data set with PC12 cells is on record as 66.7213 % control.
As to `CCCC[C@H](NC(=O)[C@H](CC(C)C)NC(=O)CNC(=O)[C@@H](NC(=O)[C@@H](NC(=O)[C@H](C)NC(=O)CNC(=O)[C@H](CCCCN)NC(=O)[C@H](CC(N)=O)NC(=O)[C@H](CC(C)C)NC(=O)[C@H](CC(C)C)NC(=O)[C@H](CC(C)C)NC(=O)[C@H](CC(=O)O)NC(=O)[C@H](CCC(=O)O)NC(=O)[C@H](C)NC(=O)[C@H](Cc1ccccc1)N(C)C(=O)[C@H](Cc1ccccc1)NC(=O)[C@H](C(C)C)N(C)C(=O)[C@H](CC(C)C)NC(=O)[C@H](CCCCN)NC(=O)[C@@H](N)CCC(N)=O)[C@@H](C)CC)[C@@H](C)CC)C(=O)N[C@H](C(=O)NCC(=O)NCC(=O)N[C@H](C(=O)N[C@H](C(=O)O)C(C)C)C(C)C)C(C)C` [L3-VF] (H-QKL[NMeV]F[NMeF]AEDLLLNKGAIIGL[Nle]VGGVV-OH), the midpoint of inhibition in the data set with RIN5fm cells, the IC50, lay at 112 nM. Besides, the Kd in data set [1] (setting [3]) is 77.3 nM; in data set [1] (setting [6]), 77.3 nM; in data set [2] (setting [4]), 38 nM; in data set [2] (setting [5]), 38 nM.
In the data set with RIN5fm cells, `CCCC[C@H](NC(=O)[C@H](CC(=O)O)NC(=O)[C@H](CCC(=O)O)NC(=O)[C@H](C)NC(=O)[C@H](Cc1ccccc1)N(C)C(=O)[C@H](Cc1ccccc1)NC(=O)[C@H](C(C)C)N(C)C(=O)[C@H](CC(C)C)NC(=O)[C@H](CCCCN)NC(=O)[C@@H](N)CCC(N)=O)C(=O)N[C@@H](CCCC)C(=O)N[C@@H](CCCC)C(=O)N[C@@H](CC(N)=O)C(=O)N[C@@H](CCCCN)C(=O)NCC(=O)N[C@@H](C)C(=O)N[C@H](C(=O)N[C@H](C(=O)NCC(=O)N[C@@H](CC(C)C)C(=O)N[C@@H](CCCC)C(=O)N[C@H](C(=O)NCC(=O)NCC(=O)N[C@H](C(=O)N[C@H](C(=O)O)C(C)C)C(C)C)C(C)C)[C@@H](C)CC)[C@@H](C)CC` [Nle3-VF] (H-QKL[NMeV]F[NMeF]AED[Nle][Nle][Nle]NKGAIIGL[Nle]VGGVV-OH) returned an IC50 of 65 nM. Besides, the “effect on IAPP cytotoxicity (in words)” value with RIN5fm cells is “fully suppressed”. For the same compound, the Kd in data set [1] (Fig. 2a right panel, mean values of the 3 curves, read-out: App. Kd) was 69.5 nM; in data set [2] (setting [5]) it was 14.5 nM; in data set [2] (fluorescence titration, emission at 519 nm, Mean values of the 3 curves, read-out: App. Kd), 14.5 nM.
For `CCCC[C@H](NC(=O)[C@H](CC(C)C)NC(=O)CNC(=O)[C@@H](NC(=O)[C@@H](NC(=O)[C@H](C)NC(=O)CNC(=O)[C@H](CCCCN)NC(=O)[C@H](CC(N)=O)NC(=O)[C@H](Cc1ccccc1)NC(=O)[C@H](Cc1ccccc1)NC(=O)[C@H](Cc1ccccc1)NC(=O)[C@H](CC(=O)O)NC(=O)[C@H](CCC(=O)O)NC(=O)[C@H](C)NC(=O)[C@H](Cc1ccccc1)N(C)C(=O)[C@H](Cc1ccccc1)NC(=O)[C@H](C(C)C)N(C)C(=O)[C@H](CC(C)C)NC(=O)[C@H](CCCCN)NC(=O)[C@@H](N)CCC(N)=O)[C@@H](C)CC)[C@@H](C)CC)C(=O)N[C@H](C(=O)NCC(=O)NCC(=O)N[C@H](C(=O)N[C@H](C(=O)O)C(C)C)C(C)C)C(C)C` [F3-VF] (H-QKL[NMeV]F[NMeF]AEDFFFNKGAIIGL[Nle]VGGVV-OH), in the data set on RIN5fm cells, the IC50 was found to be 78.5 nM. Also, the Kd in data set [1] (setting [3]) is 15 nM; in data set [1] (setting [6]), 15 nM; in data set [2] (setting [4]) it was 161 nM; in data set [2] (setting [5]), 161 nM.
As for `CCCC[C@H](NC(=O)[C@H](CC(C)C)NC(=O)CNC(=O)[C@@H](NC(=O)[C@@H](NC(=O)[C@H](C)NC(=O)CNC(=O)[C@H](CCCCN)NC(=O)[C@H](CC(N)=O)NC(=O)[C@H](CC(C)C)NC(=O)[C@H](CC(C)C)NC(=O)[C@H](CC(C)C)NC(=O)[C@H](CC(=O)O)NC(=O)[C@H](CCC(=O)O)NC(=O)[C@H](C)NC(=O)[C@H](Cc1ccccc1)NC(=O)[C@H](Cc1ccccc1)N(C)C(=O)[C@@H](NC(=O)[C@H](CC(C)C)N(C)C(=O)[C@H](CCCCN)NC(=O)[C@@H](N)CCC(N)=O)C(C)C)[C@@H](C)CC)[C@@H](C)CC)C(=O)N[C@H](C(=O)NCC(=O)NCC(=O)N[C@H](C(=O)N[C@H](C(=O)O)C(C)C)C(C)C)C(C)C` [L3-LF] (H-QK[NMeL]V[NMeF]FAEDLLLNKGAIIGL[Nle]VGGVV-OH), in the data set on RIN5fm cells, the IC50 was found to be 133 nM and the “effect on IAPP cytotoxicity (in words)” value was “fully suppressed”. In addition, the Kd in data set [1] (setting [3]) was determined as 143 nM. The Kd in data set [2] (setting [4]) came to 2.64 nM.

Source of the values: paper PMC9411207, “Designed peptides as nanomolar cross-amyloid inhibitors acting via supramolecular nanofiber co-assembly” (Nature Communications, 2022).
